In the OligoGym collection:
Several values for one entry are separate records, joined by “and”; a condition that tells them apart may be missing. Equal values may be shown once. After the bases stand the sugars from the 5' end (letter, count) and the backbone: PS all phosphorothioate, else s phosphorothioate and o phosphodiester by linkage. Methylation of C is not given here. e = 2'-O-(2-methoxyethyl) (MOE); k = constrained ethyl (cEt); d = 2'-deoxy (DNA)

Target: IRF4
Settings: ASO

Question: With AAACACCTCAGCTGAC (sugars k3 d10 k3, PS) as the sequence, how does the target mRNA inhibition (SK-MEL-28, 4 µM) read?
Answer: 16%

Question: Which target mRNA inhibition (SK-MEL-28, 4 µM) does the source give for AAACAGCCGCCGGCAC (sugars k3 d10 k3, PS) here?
Answer: 11%

Question: How did the target mRNA inhibition (SK-MEL-28, 4 µM) turn out when AAACAGTGCCCAAGCC (sugars k3 d10 k3, PS) was run?
Answer: 25%

Question: Which target mRNA inhibition (MM.1R, 1 µM) does the source give for AAACATCCAAAGGGTT (sugars k3 d10 k3, PS) here?
Answer: -1%

Question: With AAAGAAGCAAGTCGGT (sugars k3 d10 k3, PS) as the sequence, how does the target mRNA inhibition (MM.1R, 1 µM) read?
Answer: -2%

Question: For AAAGAATGGCGCATAG (sugars k3 d10 k3, PS), which target mRNA inhibition (MM.1R, 1 µM) is on record?
Answer: 10%

Question: With AAAGATGCCAGAGGGC (sugars k3 d10 k3, PS) as the sequence, how does the target mRNA inhibition (SK-MEL-28, 4 µM) read?
Answer: 23%

Question: How did the target mRNA inhibition (SK-MEL-28, 4 µM) turn out when AAAGCATAGAGTCACC (sugars k3 d10 k3, PS) was run?
Answer: 34%

Question: How did the target mRNA inhibition (SK-MEL-28, 4 µM) turn out when AAAGGAGGTAGTGGCC (sugars k3 d10 k3, PS) was run?
Answer: 21%

Question: With AAAGGCCAAATTGCAA (sugars k3 d10 k3, PS) as the sequence, how does the target mRNA inhibition (SK-MEL-28, 4 µM) read?
Answer: 52%

Question: AAATAGCATCAGAGCT (sugars k3 d10 k3, PS) was tested. Which target mRNA inhibition (SK-MEL-28, 4 µM) did it give?
Answer: 13%

Question: With AACAGATAGTTAAGTA (sugars k3 d10 k3, PS) as the sequence, how does the target mRNA inhibition (SK-MEL-28, 4 µM) read?
Answer: 19%

Question: Which target mRNA inhibition (SK-MEL-28, 4 µM) does the source give for AACCAAGAAATGCACC (sugars k3 d10 k3, PS) here?
Answer: 33%

Question: With AACCACAAGCAGTGAT (sugars k3 d10 k3, PS) as the sequence, how does the target mRNA inhibition (SK-MEL-28, 4 µM) read?
Answer: 17%

Question: How did the target mRNA inhibition (MM.1R, 0.0625 µM) turn out when AACCTTAAGCTATTTG (sugars k3 d10 k3, PS) was run?
Answer: -10%

Question: And the target mRNA inhibition (MM.1R, 0.25 µM)?
Answer: -5%

Question: And the target mRNA inhibition (MM.1R, 4 µM)?
Answer: 48%

Question: For AACGAGCCAGTGCACA (sugars k3 d10 k3, PS), which target mRNA inhibition (MM.1R, 1 µM) is on record?
Answer: -1%

Question: How did the target mRNA inhibition (SK-MEL-28, 4 µM) turn out when AACTTACAGGACTATT (sugars k3 d10 k3, PS) was run?
Answer: 13%

Question: With AAGATACAAAACGGAC (sugars k3 d10 k3, PS) as the sequence, how does the target mRNA inhibition (SK-MEL-28, 4 µM) read?
Answer: 39%

Question: Which target mRNA inhibition (SK-MEL-28, 4 µM) does the source give for AAGATGACTCCATGAG (sugars k3 d10 k3, PS) here?
Answer: 64%

Question: AAGCAAGAGCTTACTG (sugars k3 d10 k3, PS) was tested. Which target mRNA inhibition (SK-MEL-28, 4 µM) did it give?
Answer: 14%

Question: For AAGCAAGTGGAGGTCT (sugars k3 d10 k3, PS), which target mRNA inhibition (SK-MEL-28, 4 µM) is on record?
Answer: 51%

Question: How did the target mRNA inhibition (SK-MEL-28, 4 µM) turn out when AAGCACTGGCATTGAG (sugars k3 d10 k3, PS) was run?
Answer: 42%

Question: Which target mRNA inhibition (MM.1R, 1 µM) does the source give for “AAGCAGTGATGTCAGG (sugars kdddddddddkekeke, PS)” here?
Answer: 34% and 35%

Question: Which target mRNA inhibition (MM.1R, 1 µM) does the source give for “AAGCATTTTATCATCC (sugars e1 k2 d9 k2 e2, PS)” here?
Answer: 14%

Question: Which target mRNA inhibition (MM.1R, 1 µM) does the source give for “AAGCATTTTATCATCC (sugars kkdddddddddkdkdk, PS)” here?
Answer: 3%

Question: For “AAGCATTTTATCATCC (sugars kkkdddddddddkeke, PS)”, which target mRNA inhibition (MM.1R, 1 µM) is on record?
Answer: 21%

Question: For AAGCGAGTCAGACAGT (sugars k3 d10 k3, PS), which target mRNA inhibition (MM.1R, 1 µM) is on record?
Answer: -22%

Question: With AAGCTTGATAAAGGCT (sugars k3 d10 k3, PS) as the sequence, how does the target mRNA inhibition (MM.1R, 1 µM) read?
Answer: 3%

Question: With AAGGGTTACGCTTATT (sugars k3 d10 k3, PS) as the sequence, how does the target mRNA inhibition (SK-MEL-28, 4 µM) read?
Answer: 52%

Question: For AAGGTCTGAGAGCCTT (sugars k3 d10 k3, PS), which target mRNA inhibition (SK-MEL-28, 4 µM) is on record?
Answer: 17%

Question: With AAGGTTCCTGTCACCT (sugars k4 d8 k4, PS) as the sequence, how does the target mRNA inhibition (SK-MEL-28, 4 µM) read?
Answer: 14%

Question: How did the target mRNA inhibition (SK-MEL-28, 4 µM) turn out when AAGTGATAGGTATACT (sugars k3 d10 k3, PS) was run?
Answer: 50%

Question: How did the target mRNA inhibition (MM.1R, 1 µM) turn out when AAGTGGAACTCATAGG (sugars k3 d10 k3, PS) was run?
Answer: 25%

Question: For “AAGTGTCTAAAGTCCC (sugars kkdddddddddkekek, PS)”, which target mRNA inhibition (MM.1R, 1 µM) is on record?
Answer: 12% and 22%

Question: How did the target mRNA inhibition (MM.1R, 1 µM) turn out when “AAGTTCATGTAAAGTC (sugars k2 d9 e3 k2, PS)” was run?
Answer: 21% and 3%

Question: For AAGTTCATGTAAAGTC (sugars k3 d10 k3, PS), which target mRNA inhibition (MM.1R, 1 µM) is on record?
Answer: 43% and 41%

Question: With “AAGTTCATGTAAAGTC (sugars kdddddddddkekeke, PS)” as the sequence, how does the target mRNA inhibition (MM.1R, 1 µM) read?
Answer: 14% and 21%

Question: With “AAGTTCATGTAAAGTC (sugars kkdddddddddkekek, PS)” as the sequence, how does the target mRNA inhibition (MM.1R, 1 µM) read?
Answer: 34% and 27%

Question: For AATAAAATGTCACGCC (sugars k3 d10 k3, PS), which target mRNA inhibition (MM.1R, 1 µM) is on record?
Answer: 20%

Question: Which target mRNA inhibition (SK-MEL-28, 4 µM) does the source give for AATAAACACCCCTTCT (sugars k3 d10 k3, PS) here?
Answer: 21%

Question: AATAAAGACCTTAACC (sugars k3 d10 k3, PS) was tested. Which target mRNA inhibition (SK-MEL-28, 4 µM) did it give?
Answer: 11%

Question: With AATAAGCAGAAACAGC (sugars k3 d10 k3, PS) as the sequence, how does the target mRNA inhibition (SK-MEL-28, 4 µM) read?
Answer: -1%

Question: AATATAACGGTGTTTC (sugars k3 d10 k3, PS) was tested. Which target mRNA inhibition (MM.1R, 1 µM) did it give?
Answer: 8%

Question: For AATCACGAGGTTGCCG (sugars k3 d10 k3, PS), which target mRNA inhibition (MM.1R, 1 µM) is on record?
Answer: -6%

Question: AATCACTTGTCTTGGG (sugars k3 d10 k3, PS) was tested. Which target mRNA inhibition (SK-MEL-28, 4 µM) did it give?
Answer: 60%

Question: With AATCAGATGATGTCTA (sugars k4 d8 k4, PS) as the sequence, how does the target mRNA inhibition (SK-MEL-28, 4 µM) read?
Answer: -13%

Question: AATCAGATGTCACTGA (sugars k3 d10 k3, PS) was tested. Which target mRNA inhibition (SK-MEL-28, 4 µM) did it give?
Answer: 3%

Question: Which target mRNA inhibition (MM.1R, 1 µM) does the source give for AATCTTCTGGATTGCT (sugars k3 d10 k3, PS) here?
Answer: 14%

Question: How did the target mRNA inhibition (SK-MEL-28, 4 µM) turn out when AATGAACGGAAGTTTA (sugars k3 d10 k3, PS) was run?
Answer: 33%

Question: AATGGAGATACTTGTA (sugars k3 d10 k3, PS) was tested. Which target mRNA inhibition (MM.1R, 1 µM) did it give?
Answer: 26%

Question: Which target mRNA inhibition (MM.1R, 1 µM) does the source give for AATGGCAGCACCGTGT (sugars k3 d10 k3, PS) here?
Answer: 0%

Question: For AATGTAGGGATACAGC (sugars k3 d10 k3, PS), which target mRNA inhibition (SK-MEL-28, 4 µM) is on record?
Answer: 62%

Question: For “AATGTGTATTACTCTT (sugars k2 d9 e3 k2, PS)”, which target mRNA inhibition (MM.1R, 1 µM) is on record?
Answer: 15% and 17%

Question: “AATGTGTATTACTCTT (sugars kdddddddddkekeke, PS)” was tested. Which target mRNA inhibition (MM.1R, 1 µM) did it give?
Answer: 12% and 15%

Question: How did the target mRNA inhibition (MM.1R, 1 µM) turn out when “AATGTGTATTACTCTT (sugars kkdddddddddekeke, PS)” was run?
Answer: 24% and 30%
